The values below come from US20080234262A1 (Wyeth, priority 2007, published 2008).

Like-named read-outs stand apart in the source and are kept apart here.

Experiment [1] addresses PI3K (Homo sapiens, UniProt P42336). Briefly: Fluorescence polarization assay for PI3K.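 Note: PI3K kinase reaction on PIP2 with ATP, 30-60 min, product sensed by GST-GRP with red probe in fluorescence polarization (mP), controls without enzyme and at zero time.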 Format: biochemical. A general note: Fluorescence polarisation rises when a labelled molecule tumbles more slowly, as on binding a larger partner.
The subject of experiment [2] is prostate line LNCap. Briefly: In vitro cell culture growth assay (MTS), LNCap.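 Note: viable cell density read by absorbance at 490 nm, growth expressed as percent of vehicle-treated cells on the same plate.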 As to conditions: LNCap cells, three days after drug treatment. The format is cell-based, human.
Experiment [3] concerns breast line MDA468. Briefly: In vitro cell culture growth assay (MTS), MDA468. Format: cell-based, human. As to conditions: MDA468 cells, three days after drug treatment. The method, boiled down: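 Steps: plate cells; add inhibitors the next day; incubate 3 days; add MTS dye, which viable cells convert metabolically; measure absorbance at 490 nm; calculate percent of control growth relative to vehicle-treated cells in the same plate.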

Sequence of PI3K (P42336 whole entry): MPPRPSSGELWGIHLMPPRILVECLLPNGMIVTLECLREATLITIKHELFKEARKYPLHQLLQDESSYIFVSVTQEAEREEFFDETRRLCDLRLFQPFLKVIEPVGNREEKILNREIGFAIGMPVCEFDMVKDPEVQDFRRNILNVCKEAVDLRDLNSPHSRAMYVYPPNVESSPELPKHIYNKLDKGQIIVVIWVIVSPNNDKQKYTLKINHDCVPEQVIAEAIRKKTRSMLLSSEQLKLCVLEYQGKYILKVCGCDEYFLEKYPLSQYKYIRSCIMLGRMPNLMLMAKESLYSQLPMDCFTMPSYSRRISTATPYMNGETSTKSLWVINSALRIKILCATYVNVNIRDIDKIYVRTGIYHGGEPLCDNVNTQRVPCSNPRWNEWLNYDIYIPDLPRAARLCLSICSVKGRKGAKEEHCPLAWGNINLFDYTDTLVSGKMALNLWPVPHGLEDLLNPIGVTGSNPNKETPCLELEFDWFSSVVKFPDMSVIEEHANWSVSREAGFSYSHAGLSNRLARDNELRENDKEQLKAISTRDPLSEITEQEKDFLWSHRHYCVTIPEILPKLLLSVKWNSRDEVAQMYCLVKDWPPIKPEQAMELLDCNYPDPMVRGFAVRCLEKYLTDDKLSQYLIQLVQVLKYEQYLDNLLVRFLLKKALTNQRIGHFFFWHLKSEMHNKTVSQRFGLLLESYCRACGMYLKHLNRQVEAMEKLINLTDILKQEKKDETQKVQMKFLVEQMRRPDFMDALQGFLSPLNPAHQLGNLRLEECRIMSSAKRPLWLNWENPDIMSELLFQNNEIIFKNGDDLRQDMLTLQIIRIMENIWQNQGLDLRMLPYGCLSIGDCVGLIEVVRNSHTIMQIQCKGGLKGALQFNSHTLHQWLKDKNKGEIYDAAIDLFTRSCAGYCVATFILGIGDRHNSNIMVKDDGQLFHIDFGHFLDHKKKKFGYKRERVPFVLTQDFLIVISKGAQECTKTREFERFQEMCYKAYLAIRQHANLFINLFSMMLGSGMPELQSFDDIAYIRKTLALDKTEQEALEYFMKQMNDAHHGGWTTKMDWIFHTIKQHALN
Sequence of PI3K (P27986 whole entry partner): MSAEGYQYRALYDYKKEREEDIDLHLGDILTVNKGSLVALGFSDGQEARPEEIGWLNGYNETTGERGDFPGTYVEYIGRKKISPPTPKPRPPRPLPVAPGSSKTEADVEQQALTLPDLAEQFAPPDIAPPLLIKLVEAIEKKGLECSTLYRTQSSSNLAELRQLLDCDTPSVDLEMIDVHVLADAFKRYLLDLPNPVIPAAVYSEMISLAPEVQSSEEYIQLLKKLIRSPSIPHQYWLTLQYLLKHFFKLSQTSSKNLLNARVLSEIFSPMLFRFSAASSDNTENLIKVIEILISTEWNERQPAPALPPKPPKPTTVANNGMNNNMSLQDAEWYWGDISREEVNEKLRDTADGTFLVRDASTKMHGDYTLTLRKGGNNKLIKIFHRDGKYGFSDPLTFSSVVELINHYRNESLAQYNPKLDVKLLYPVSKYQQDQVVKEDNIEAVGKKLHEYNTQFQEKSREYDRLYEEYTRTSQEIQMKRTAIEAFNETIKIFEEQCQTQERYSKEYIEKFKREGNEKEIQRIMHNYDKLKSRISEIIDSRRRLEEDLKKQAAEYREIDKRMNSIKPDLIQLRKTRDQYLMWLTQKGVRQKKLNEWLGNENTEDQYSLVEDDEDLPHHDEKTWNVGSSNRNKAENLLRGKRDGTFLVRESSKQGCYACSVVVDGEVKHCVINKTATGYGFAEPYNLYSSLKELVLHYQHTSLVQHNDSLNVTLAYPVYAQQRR

As to `O=C1Cc2cc(-c3nc(N4CCOCC4)c4cnn(-c5ccccc5)c4n3)ccc2N1` [Compound 677, 5-(4-morpholin-4-yl-1-phenyl-1H-pyrazolo[3,4-d]pyrimidin-6-yl)-1,3-dihydro-2H-indol-2-one], the IC50 in experiment [1] (PI3Kα, read-out: PI3Kα IC50) was 1030 nM; in experiment [2], more than 60000 nM; in experiment [3] it was more than 60000 nM.

In the case of `COc1cc(-c2nc(N3CCOCC3)c3cnn(C4CCN(Cc5ccccc5)CC4)c3n2)ccc1N` [Compound 181], the IC50 worked out at 2480 nM in experiment [1] (PI3Kα, read-out: PI3Kα IC50); 1500 nM in experiment [2] (Homo sapiens, LNCaP, 72 h); 5500 nM in experiment [3] (Homo sapiens, 72 h).

On to `O=C(Nc1ccc(-c2nc(N3CCOCC3)c3cnn(C4CCN(CC(F)(F)F)CC4)c3n2)cc1)OCCO` [Compound 923, 2-hydroxyethyl (4-{4-morpholin-4-yl-1-[1-(2,2,2-trifluoroethyl)piperidin-4-yl]-1H-pyrazolo[3,4-d]pyrimidin-6-yl}phenyl)carbamate], for which the IC50 worked out at 737 nM in experiment [1] (PI3Kα, read-out: PI3Kα IC50); 110 nM in experiment [2] (Homo sapiens, LNCaP, 72 h); 1200 nM in experiment [3] (Homo sapiens, 72 h).

Regarding `CNC(=O)Nc1ccc(-c2nc(N3CCOCC3)c3cnn(C4CCN(C(=O)c5ccc(C)cc5)CC4)c3n2)cc1` [Example 367, 1-methyl-3-(4-{1-[1-(4-methylbenzoyl)piperidin-4-yl]-4-morpholin-4-yl-1H-pyrazolo[3,4-d]pyrimidin-6-yl}phenyl)urea], the IC50 in experiment [1] (PI3Kα, read-out: PI3Kα IC50) was 43 nM; in experiment [2] (Homo sapiens, LNCaP, 72 h), 27 nM; in experiment [3] (Homo sapiens, 72 h), 100 nM.

In the case of `O=C(Nc1ccc(-c2nc(N3CCOCC3)c3cnn(C4CCN(C(=O)c5cccnc5)CC4)c3n2)cc1)Nc1cccs1` [Compound 657, 1-(4-{4-morpholin-4-yl-1-[1-(pyridin-3-ylcarbonyl)piperidin-4-yl]-1H-pyrazolo[3,4-d]pyrimidin-6-yl}phenyl)-3-(2-thienyl)urea], the IC50 stood at 14 nM in experiment [1] (PI3Kα, read-out: PI3Kα IC50); 35 nM in experiment [2]; 40 nM in experiment [3] (Homo sapiens, 72 h).

Take `CCn1nc(C#CCO)c2c(N3CCOCC3)nc(-c3ccc(NC(=O)Nc4cccnc4)cc3)nc21` [Compound 956, 1-{4-[1-ethyl-3-(3-hydroxyprop-1-yn-1-yl)-4-morpholin-4-yl-1H-pyrazolo[3,4-d]pyrimidin-6-yl]phenyl}-3-pyridin-3-ylurea]: the IC50 in experiment [1] (PI3Kα, read-out: PI3Kα IC50) amounted to 1.75 nM; in experiment [2] (Homo sapiens, LNCaP, 72 h), 47 nM; in experiment [3] (Homo sapiens, 72 h), 90 nM.

Consider `O=C(Cc1ccccc1)N1CCC(n2ncc3c(N4CCOCC4)nc(-c4ccc5[nH]ccc5c4)nc32)CC1` [Compound 242, 6-(1H-indol-5-yl)-4-morpholin-4-yl-1-[1-(phenylacetyl)piperidin-4-yl]-1H-pyrazolo[3,4-d]pyrimidine], for which the IC50 in experiment [1] (PI3Kα, read-out: PI3Kα IC50) was 692 nM; in experiment [2] (Homo sapiens, LNCaP, 72 h) it was 700 nM; in experiment [3] (Homo sapiens, 72 h) it was 3000 nM.

On to `Oc1cccc(CN2CCC(n3ncc4c(N5CCOCC5)nc(-c5ccc6[nH]ccc6c5)nc43)CC2)c1` [Example 76], for which the IC50 in experiment [1] (PI3Kα, read-out: PI3Kα IC50) amounted to 522 nM; in experiment [2] (Homo sapiens, LNCaP, 72 h) it was 900 nM; in experiment [3] (Homo sapiens, 72 h) it was 1000 nM.

As to `COC(=O)N1CCC(n2ncc3c(N4CCOCC4)nc(-c4ccc5[nH]ccc5c4)nc32)CC1` [Compound 494, methyl 4-[6-(1H-indol-5-yl)-4-morpholin-4-yl-1H-pyrazolo[3,4-d]pyrimidin-1-yl]piperidine-1-carboxylate], the IC50 in experiment [1] (PI3Kα, read-out: PI3Kα IC50) is 3300 nM; in experiment [2] (Homo sapiens, LNCaP, 72 h), 750 nM; in experiment [3] (Homo sapiens, 72 h), 2050 nM.

Regarding `CONC(=O)Nc1ccc(-c2nc(N3CCOCC3)c3cnn(C4CCN(C(=O)c5cccnc5)CC4)c3n2)cc1` [Compound 553, 1-methoxy-3-(4-{4-morpholin-4-yl-1-[1-(pyridin-3-ylcarbonyl)piperidin-4-yl]-1H-pyrazolo[3,4-d]pyrimidin-6-yl}phenyl)urea], the IC50 is 1810 nM in experiment [1] (PI3Kα, read-out: PI3Kα IC50); 800 nM in experiment [2] (Homo sapiens, LNCaP, 72 h); 3000 nM in experiment [3] (Homo sapiens, 72 h).

In the case of `CN(C)C(=O)N1CCC(n2ncc3c(N4CCOCC4)nc(-c4ccc5[nH]ccc5c4)nc32)CC1` [Compound 95], the IC50 was 2460 nM in experiment [1] (PI3Kα, read-out: PI3Kα IC50); 700 nM in experiment [2] (Homo sapiens, LNCaP, 72 h); 2100 nM in experiment [3] (Homo sapiens, 72 h).

In the case of `CNC(=O)Nc1ccc(-c2nc(N3CCOCC3)c3cnn(C4CCN(Cc5ccccc5O)CC4)c3n2)cc1` [Example 399, 1-(4-{1-[1-(2-hydroxybenzyl)piperidin-4-yl]-4-morpholin-4-yl-1H-pyrazolo[3,4-d]pyrimidin-6-yl}phenyl)-3-methylurea], the IC50 in experiment [1] (PI3Kα, read-out: PI3Kα IC50) turned out to be 37 nM; in experiment [2] (Homo sapiens, LNCaP, 72 h) it was 60 nM; in experiment [3] (Homo sapiens, 72 h) it was 300 nM.

Turning to `CONC(=O)Nc1ccc(-c2nc(N3CCOCC3)c3cnn(-c4ccccc4)c3n2)cc1` [Compound 295, 1-methoxy-3-[4-(4-morpholin-4-yl-1-phenyl-1H-pyrazolo[3,4-d]pyrimidin-6-yl)phenyl]urea], the IC50 is 404 nM in experiment [1] (PI3Kα, read-out: PI3Kα IC50); 1800 nM in experiment [2] (Homo sapiens, LNCaP, 72 h); 5000 nM in experiment [3] (Homo sapiens, 72 h).

For the compound `O=C(c1ccc[n+]([O-])c1)N1CCC(n2ncc3c(N4CCOCC4)nc(-c4ccc5[nH]ccc5c4)nc32)CC1` [Compound 197], the IC50 came out at 3060 nM in experiment [1] (PI3Kα, read-out: PI3Kα IC50); 2500 nM in experiment [2] (Homo sapiens, LNCaP, 72 h); 3800 nM in experiment [3] (Homo sapiens, 72 h).

For `O=C(Nc1ccncc1)Nc1ccc(-c2nc(N3CCOCC3)c3cnn(C4CCN(C(=O)c5cccnc5)CC4)c3n2)cc1` [Compound 591, 1-(4-{4-morpholin-4-yl-1-[1-(pyridin-3-ylcarbonyl)piperidin-4-yl]-1H-pyrazolo[3,4-d]pyrimidin-6-yl}phenyl)-3-pyridin-4-ylurea], the IC50 in experiment [1] (PI3Kα, read-out: PI3Kα IC50) was 15 nM; in experiment [2] (Homo sapiens, LNCaP, 72 h), 27 nM; in experiment [3] (Homo sapiens, 72 h), less than 27 nM.

For the compound `CNC(=O)Oc1ccc(-c2nc(N3CCOCC3)c3cnn(C4CCN(C(=O)OC)CC4)c3n2)cc1` [Compound 946, methyl 4-(6-{4-[(methylcarbamoyl)oxy]phenyl}-4-morpholin-4-yl-1H-pyrazolo[3,4-d]pyrimidin-1-yl)piperidine-1-carboxylate], the IC50 in experiment [1] (PI3Kα IC50, PI3Kα) worked out at 13000 nM; in experiment [2] (Homo sapiens, 72 h), 1600 nM; in experiment [3] (Homo sapiens, 72 h) it was 7000 nM.

With `CNC(=O)Nc1ccc(-c2nc(N3CCOCC3)c3cnn(C4CCN(C(=O)c5cccnc5C)CC4)c3n2)cc1` [Example 329, 1-methyl-3-[4-(1-{1-[(2-methylpyridin-3-yl)carbonyl]piperidin-4-yl}-4-morpholin-4-yl-1H-pyrazolo[3,4-d]pyrimidin-6-yl)phenyl]urea], the IC50 in experiment [1] (PI3Kα, read-out: PI3Kα IC50) was 216 nM; in experiment [2] (Homo sapiens, LNCaP, 72 h) it was 250 nM; in experiment [3] (Homo sapiens, 72 h), 900 nM.

On to `CC(C)(C)C(=O)Nc1ccc(-c2nc(N3CCOCC3)c3cnn(C4CCN(Cc5ccccc5)CC4)c3n2)cc1` [Compound 187], for which the IC50 in experiment [1] (PI3Kα, read-out: PI3Kα IC50) was 7770 nM; in experiment [2] (Homo sapiens, LNCaP, 72 h), 35000 nM; in experiment [3] (Homo sapiens, 72 h) it was 40000 nM.

For `O=C(Nc1ccccc1)Nc1ccc(-c2nc(N3CCOCC3)c3cnn(C4CCN(CC(F)(F)F)CC4)c3n2)cc1` [Compound 789, 1-(4-{4-morpholin-4-yl-1-[1-(2,2,2-trifluoroethyl)piperidin-4-yl]-1H-pyrazolo[3,4-d]pyrimidin-6-yl}phenyl)-3-phenylurea], the IC50 came out at 18 nM in experiment [1] (PI3Kα, read-out: PI3Kα IC50); 100 nM in experiment [2] (Homo sapiens, LNCaP, 72 h); 900 nM in experiment [3] (Homo sapiens, 72 h).

With `COCCN1CCC(n2ncc3c(N4CCOCC4)nc(-c4ccc5[nH]ccc5c4)nc32)CC1` [Compound 491, 6-(1H-indol-5-yl)-1-[1-(2-methoxyethyl)piperidin-4-yl]-4-morpholin-4-yl-1H-pyrazolo[3,4-d]pyrimidine], the IC50 in experiment [1] (PI3Kα, read-out: PI3Kα IC50) came out at 5000 nM; in experiment [2] (Homo sapiens, LNCaP, 72 h), 2400 nM; in experiment [3] (Homo sapiens, 72 h), 4200 nM.

Consider `COC(=O)N1CCC(n2ncc3c(N4CCOCC4)nc(-c4ccc(NC(=O)Oc5ccc(F)cc5)cc4)nc32)CC1` [Compound 948, methyl 4-[6-(4-{[(4-fluorophenoxy)carbonyl]amino}phenyl)-4-morpholin-4-yl-1H-pyrazolo[3,4-d]pyrimidin-1-yl]piperidine-1-carboxylate], for which the IC50 was 8830 nM in experiment [1] (PI3Kα IC50, PI3Kα); 220 nM in experiment [2] (Homo sapiens, 72 h); 700 nM in experiment [3] (Homo sapiens, 72 h).

For `Nc1ccnc(-c2nc(N3CCOCC3)c3cnn(-c4ccccc4)c3n2)c1` [Compound 437, 2-(4-morpholin-4-yl-1-phenyl-1H-pyrazolo[3,4-d]pyrimidin-6-yl)pyridin-4-amine], the IC50 in experiment [1] (PI3Kα, read-out: PI3Kα IC50) amounted to 1460 nM; in experiment [2] (Homo sapiens, LNCaP, 72 h) it was 60000 nM; in experiment [3] (Homo sapiens, 72 h), 60000 nM.

As to `CNC(=O)Nc1ccc(-c2nc(N3CCOCC3)c3cnn(C4CCN(C(=O)c5cnccc5C)CC4)c3n2)cc1` [Example 419, 1-methyl-3-[4-(1-{1-[(4-methylpyridin-3-yl)carbonyl]piperidin-4-yl}-4-morpholin-4-yl-1H-pyrazolo[3,4-d]pyrimidin-6-yl)phenyl]urea], the IC50 turned out to be 231 nM in experiment [1] (PI3Kα, read-out: PI3Kα IC50); 320 nM in experiment [2] (Homo sapiens, LNCaP, 72 h); 400 nM in experiment [3] (Homo sapiens, 72 h).

On to `CN(C)CC(=O)Nc1ccc(-c2nc(N3CCOCC3)c3cnn(C4CCCCO4)c3n2)cc1` (stereo not drawn) [Compound 521, N2,N2-dimethyl-N-{4-[4-morpholin-4-yl-1-(tetrahydro-2H-pyran-2-yl)-1H-pyrazolo[3,4-d]pyrimidin-6-yl]phenyl}glycinamide], for which the IC50 in experiment [1] (PI3Kα, read-out: PI3Kα IC50) is 9000 nM; in experiment [2] (Homo sapiens, LNCaP, 72 h) it was 12000 nM; in experiment [3] (Homo sapiens, 72 h) it was 40000 nM.

On to `O=C(NCCO)Nc1ccc(-c2nc(N3CCOCC3)c3cnn(C4CCN(Cc5cccnc5)CC4)c3n2)cc1` [Example 316, 1-(2-hydroxyethyl)-3-(4-{4-morpholin-4-yl-1-[1-(pyridin-3-ylmethyl)piperidin-4-yl]-1H-pyrazolo[3,4-d]pyrimidin-6-yl}phenyl)urea], for which the IC50 in experiment [1] (PI3Kα, read-out: PI3Kα IC50) is 163 nM; in experiment [2] (Homo sapiens, LNCaP, 72 h), 500 nM; in experiment [3] (Homo sapiens, 72 h), 600 nM.

On to `COC(=O)Nc1ccc(-c2nc(N3CCOCC3)c3cnn(C4CCN(C(=O)c5cccnc5)CC4)c3n2)cc1` [Example 213, methyl (4-{4-morpholin-4-yl-1-[1-(pyridin-3-ylcarbonyl)piperidin-4-yl]-1H-pyrazolo[3,4-d]pyrimidin-6-yl}phenyl)carbamate], for which the IC50 was 514 nM in experiment [1] (PI3Kα, read-out: PI3Kα IC50); 355 nM in experiment [2] (Homo sapiens, LNCaP, 72 h); 1200 nM in experiment [3] (Homo sapiens, 72 h).

The IC50 is the concentration needed to halve the response being measured.
